Test results: patent US8163511B2, “Methods for the identification of LRRK2 interacting molecules” (CellZome AG, priority 2006, dated 2012)

Biological target: T1, LRRK2 (Mus musculus, UniProt Q5S006)
T1 construct: from tissue; host or cells: mouse brain
Assay: Drug pulldown with immobilized indol ligand 91 and identification of LRRK2 by LC-MS/MS
Format: binding
Details: ligand covalently attached to Sepharose beads, mouse brain lysate, SDS elution, SDS-PAGE, twelve LRRK2 peptides identified
Experimental: Proteins binding to immobilized indol ligand 91 were identified using a chemical proteomics procedure. Binding proteins were purified on a resin to which indol ligand 91 was covalently attached. Bound proteins were eluted and subsequently separated by SDS-Polyacrylamide gel elecrophoresis (see FIG. 2), suitable gel bands were cut out and proteins were analyzed by LC-MS/MS mass spectrometry.
NHS-activated Sepharose 4 Fast Flow (Amersham Biosciences, 17-0906-01) was equilibrated with anhydrous DMSO (Dimethylsulfoxid, Fluka, 41648, H20<=0.005%). 1 ml of settled beads were placed in a 15 ml Falcon tube, compound stock solution (usually 100 mM in DMF or DMSO) was added (final conc. 0.2-2 μmol/ml beads) as well as 15 μl of TEA. Beads were incubated at room temperature in darkness on an end-over-end shaker (Roto Shake Genie, Scientific Industries Inc.) for 16-20 hours. Coupling efficiency was determined by HPLC. […]
Mouse brain tissue was homogenized in a Potter S homogenizer (5 ml per brain): 50 mM Tris-HCl, 1% CHAPSO, 5% glycerol, 150 mM NaCl, 1.5 mM MgCl2, 25 mM NaF, 1 mM sodium vanadate, 1 mM DTT, pH 7.5. […] The supernatant was transferred again to a fresh 50 ml falcon tube, the protein concentration was determined by a Bradford assay (BioRad) and samples containing 50 mg of protein per aliquot were prepared. […]

T1 sequence (Q5S006 whole entry V777I/K863N/C925Y/E1011G/E1190G/E1882G/Q2178N): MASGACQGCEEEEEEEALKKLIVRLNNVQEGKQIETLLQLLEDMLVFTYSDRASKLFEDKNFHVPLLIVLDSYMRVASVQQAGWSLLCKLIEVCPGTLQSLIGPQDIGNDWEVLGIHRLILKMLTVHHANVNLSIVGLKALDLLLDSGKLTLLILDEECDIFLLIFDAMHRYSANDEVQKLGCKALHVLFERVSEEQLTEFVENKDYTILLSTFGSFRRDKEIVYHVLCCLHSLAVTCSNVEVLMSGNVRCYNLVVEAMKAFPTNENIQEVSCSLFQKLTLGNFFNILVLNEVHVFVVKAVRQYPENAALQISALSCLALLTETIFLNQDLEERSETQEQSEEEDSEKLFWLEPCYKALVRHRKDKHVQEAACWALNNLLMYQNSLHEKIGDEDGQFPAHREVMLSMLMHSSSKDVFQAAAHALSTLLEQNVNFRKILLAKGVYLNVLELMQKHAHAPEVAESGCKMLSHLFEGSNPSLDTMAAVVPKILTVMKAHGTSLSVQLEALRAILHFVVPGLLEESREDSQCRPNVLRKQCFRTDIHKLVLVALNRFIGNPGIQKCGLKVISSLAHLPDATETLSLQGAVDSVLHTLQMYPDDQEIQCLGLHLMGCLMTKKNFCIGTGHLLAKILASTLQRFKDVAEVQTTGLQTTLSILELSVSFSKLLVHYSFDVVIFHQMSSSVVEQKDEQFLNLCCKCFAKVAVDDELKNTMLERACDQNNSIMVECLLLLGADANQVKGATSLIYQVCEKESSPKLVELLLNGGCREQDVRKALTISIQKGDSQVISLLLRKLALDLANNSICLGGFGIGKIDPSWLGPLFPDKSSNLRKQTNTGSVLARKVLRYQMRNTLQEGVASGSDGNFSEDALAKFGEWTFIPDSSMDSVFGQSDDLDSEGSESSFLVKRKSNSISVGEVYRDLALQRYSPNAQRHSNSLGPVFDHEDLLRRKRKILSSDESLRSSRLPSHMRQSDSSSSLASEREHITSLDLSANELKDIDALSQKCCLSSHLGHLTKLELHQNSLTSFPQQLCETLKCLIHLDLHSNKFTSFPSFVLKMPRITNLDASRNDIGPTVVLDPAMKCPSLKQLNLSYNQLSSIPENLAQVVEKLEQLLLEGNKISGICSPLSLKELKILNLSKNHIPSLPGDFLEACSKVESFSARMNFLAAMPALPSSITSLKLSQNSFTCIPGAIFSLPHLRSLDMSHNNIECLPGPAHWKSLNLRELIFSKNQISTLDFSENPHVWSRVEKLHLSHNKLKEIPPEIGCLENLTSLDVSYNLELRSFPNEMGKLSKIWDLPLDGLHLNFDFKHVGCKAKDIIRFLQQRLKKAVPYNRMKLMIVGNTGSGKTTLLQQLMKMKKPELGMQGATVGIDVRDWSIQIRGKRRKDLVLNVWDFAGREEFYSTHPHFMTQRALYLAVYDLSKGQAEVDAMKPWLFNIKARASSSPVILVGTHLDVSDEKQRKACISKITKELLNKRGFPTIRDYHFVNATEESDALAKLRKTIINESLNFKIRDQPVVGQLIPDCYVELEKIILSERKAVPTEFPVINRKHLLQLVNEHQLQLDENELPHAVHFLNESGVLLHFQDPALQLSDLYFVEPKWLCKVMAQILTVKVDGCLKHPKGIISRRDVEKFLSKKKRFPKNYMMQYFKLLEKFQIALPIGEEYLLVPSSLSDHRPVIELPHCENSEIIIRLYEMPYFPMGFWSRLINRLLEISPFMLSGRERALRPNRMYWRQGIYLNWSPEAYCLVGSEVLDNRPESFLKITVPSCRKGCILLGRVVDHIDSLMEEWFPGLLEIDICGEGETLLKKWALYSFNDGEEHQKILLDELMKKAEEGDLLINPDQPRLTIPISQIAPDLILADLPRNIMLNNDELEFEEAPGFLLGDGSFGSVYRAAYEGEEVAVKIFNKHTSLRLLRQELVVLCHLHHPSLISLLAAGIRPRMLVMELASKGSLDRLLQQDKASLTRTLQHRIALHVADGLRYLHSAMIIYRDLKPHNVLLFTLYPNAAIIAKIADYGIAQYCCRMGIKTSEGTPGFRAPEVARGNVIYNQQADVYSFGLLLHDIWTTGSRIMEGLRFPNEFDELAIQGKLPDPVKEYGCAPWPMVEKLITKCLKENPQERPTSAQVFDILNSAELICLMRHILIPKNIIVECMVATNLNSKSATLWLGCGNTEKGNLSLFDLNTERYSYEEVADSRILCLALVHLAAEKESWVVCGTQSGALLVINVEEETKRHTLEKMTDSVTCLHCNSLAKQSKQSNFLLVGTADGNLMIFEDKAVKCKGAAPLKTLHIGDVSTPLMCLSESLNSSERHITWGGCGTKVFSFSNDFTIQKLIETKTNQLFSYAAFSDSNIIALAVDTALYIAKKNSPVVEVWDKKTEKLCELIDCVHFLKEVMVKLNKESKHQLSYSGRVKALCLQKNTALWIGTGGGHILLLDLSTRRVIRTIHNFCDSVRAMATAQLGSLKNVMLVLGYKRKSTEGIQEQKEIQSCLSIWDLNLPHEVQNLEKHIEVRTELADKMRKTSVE

`Cc1[nH]c(/C=C2\C(=O)Nc3ccc(F)cc32)c(C)c1C(=O)NCCCN` [indol ligand 91, 5-[5-Fluoro-2-oxo-1,2-dihydro-indol-(3Z)-ylidenemethyl]-2,4-dimethyl-1H-pyrrole-3-carboxylic acid (3-amino-propyl)-amide] was tested, and the “enrichment/identification of LRRK2 bound to the immobilized ligand” value was “can be used to enrich and characterize LRRK2 from mouse brain lysates”.
